These results are taken from patent publication US20120196019A1, “STEVIA SWEETENER WITH A SURFACTANT” (priority 2011, published 2012).

Where two headings read alike, the source gives them in different places.

Data set [1] is described as follows: DLS size determination of 500 ppm RA solutions with gum Arabic (Example 5, FIGS. 7-9). It is filed as physicochemical. The conditions noted are these: conclusion of Example 5. On the procedure: This example was for size determination.
The solutions noted below were filtered with a 0.45 μm membrane.
Measurements were obtained by DLS after the solution was filtered and allowed to equilibrate for six hours.
According to FIGS. 7 through 9, it was determined that: […]

Data set [2] is described as follows: Saturation of Reb A aqueous solution (Example 3). It is filed as physicochemical. The conditions noted are these: water. How it is done:
Three concentrations of Reb A aqueous solutions were prepared: 500 ppm, 0.8% and 2.0%.
The 0.8% (by weight) is saturated.
The 2.0% (by weight) is over-saturated. After preparation, Reb A will continue to precipitate slowly and finally result in a 0.8% solution.

The conditions of data set [3]: cited from earlier work; for taste in sensory tests: 100% purity.

As to `C=C1C[C@@]23CC[C@H]4[C@@](C)(CCC[C@@]4(C)C(=O)O[C@@H]4O[C@H](CO)[C@@H](O)[C@H](O)[C@H]4O)[C@@H]2CC[C@]1(O[C@@H]1O[C@H](CO)[C@@H](O)[C@H](O[C@@H]2O[C@H](CO)[C@@H](O)[C@H](O)[C@H]2O)[C@H]1O[C@@H]1O[C@H](CO)[C@@H](O)[C@H](O)[C@H]1O)C3` [Reb A, Rebaudioside A], in data set [1], the “size of micelles that the molecules tend to form in solution” value is listed as “above 1000 nm” and the “stability of the solution (aggregation)” value is “unstable”. Moreover, in data set [2], the “concentration of the saturated aqueous solution” value was 0.8 % (by weight). The “taste in sensory tests” value in data set [3] (200 ppm aqueous solution) is reported as “cannot bring a perfect taste close to sugar”. Besides, the “taste in sensory tests” value in data set [3] (higher concentrations, for example 500 ppm) was “bitterness and aftertaste issues appear strongly”. Further, the “taste quality (increased sweetness and decreased bitterness)” value in data set [3] (Phytochemistry 68, 2007, 1855-1863) is given as “better than stevioside”.
